The values that follow come from patent US12459921B2, “Isoindoline compound, preparation method, pharmaceutical composition and use thereof” (SHANGHAI INSTITUTE OF MATERIA MEDICA, CHINESE ACADEMY OF …, priority 2018, dated 2025).

This assay concerns MM.1S cells. As to the kind of experiment: Inhibitory effect on the proliferation of MM.1S, MTS cell viability test. In kind it is cell-based. To be noted: Homo sapiens, MM1.S, 168 h, multiple myeloma MM.1S cells, 7 days incubation, read-out: Tumor cell inhibitory activity. In short, it runs like this: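 Viability measured by MTS (OD490 minus OD690 background, 3-4 h) after a 7-day exposure of 20,000 MM.1S cells/well to 5-fold serially diluted compound, 0.2% DMSO final. Inhibition calculated relative to DMSO wells; IC50 curve-fitted, averaged over three repeats.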
Background: Tetrazolium assays rely on reduction of a dye to a coloured formazan, in cell work by metabolically active cells.
With `O=C1CCC(N2Cc3c(CCCCN4CCN(c5noc6ccccc56)CC4)cccc3C2=O)C(=O)N1` (stereo not shown) [Example 228, 3-(4-(4-(4-(benzisoxazole-3-yl)piperazine-1-yl)butyl)-1-oxoisoindoline-2-yl)piperidine-2,6-dione], the IC50 was 1 to 20 µM.
The figure for `O=C1CCC(N2Cc3c(CCCCN4CCN(c5cc(Cl)ccc5Cl)CC4)cccc3C2=O)C(=O)N1` (stereo not shown) [Example 229, 3-(4-(4-(4-(2,5-dichlorophenyl)piperazine-1-yl)butyl)-1-oxoisoindoline-2-yl) piperidine-2,6-dione] is 0.1 to 1 µM; for `O=C1CCC(N2Cc3c(CCCCN4CCN(c5nsc6ccccc56)CC4)cccc3C2=O)C(=O)N1` (stereo not shown) [Example 230, 3-(4-(4-(4-(benzisothiazol-3-yl)piperazine-1-yl)butyl)-1-oxoisoindoline-2-yl) piperidine-2,6-dione] it is 1 to 20 µM.
With `O=C1CCC(N2Cc3c(CCCCCN4CCN(c5noc6ccccc56)CC4)cccc3C2=O)C(=O)N1` (stereo not shown) [Example 231, 3-(4-(5-(4-(benzisoxazole-3-yl)piperazin-1-yl)pentyl)-1-oxoisoindoline-2-yl) piperidine-2,6-dione] the figure was 1 to 20 µM; with `O=C1CCC(N2Cc3c(CCCCCN4CCN(c5nsc6ccccc56)CC4)cccc3C2=O)C(=O)N1` (stereo not shown) [Example 232, 3-(4-(5-(4-(benzisothiazol-3-yl)piperazin-1-yl)pentyl)-1-oxoisoindoline-2-yl) piperidine-2,6-dione], 1 to 20 µM.
Consider `O=C1CCC(N2Cc3c(CCCCCN4CCN(c5cc(Cl)ccc5Cl)CC4)cccc3C2=O)C(=O)N1` (stereo not shown) [Example 233, 3-(4-(5-(4-(2,5-dichlorophenyl)piperazine-1-yl)pentyl)-1-oxoisoindoline-2-yl) piperidine-2,6-dione], for which the IC50 is 0.1 to 1 µM.
Regarding `O=C1CCC(N2Cc3c(CCCCCN4CCN(c5ccc(Cl)c(Cl)c5)CC4)cccc3C2=O)C(=O)N1` (stereo not shown) [Example 234, 3-(4-(5-(4-(3,4-dichlorophenyl)piperazine-1-yl)pentyl)-1-oxoisoindoline-2-yl)piperidine-2,6-dione], the IC50 lay in the range of 0.1 to 1 µM.
For `O=C1CCC(N2Cc3c(CCCCCN4CCN(c5ccc(Cl)cc5Cl)CC4)cccc3C2=O)C(=O)N1` (stereo not shown) [Example 236, 3-(4-(5-(4-(2,4-dichlorophenyl)piperazine-1-yl)pentyl)-1-oxoisoindoline-2-yl)piperidine-2,6-dione], the IC50 fell in the range of 1 to 20 µM.
The figure for `O=C1CCC(N2Cc3c(CCCCCN4CCN(c5cc(Cl)cc(Cl)c5)CC4)cccc3C2=O)C(=O)N1` (stereo not shown) [Example 237, 3-(4-(5-(4-(3,5-dichlorophenyl)piperazine-1-yl)pentyl)-1-oxoisoindoline-2-yl)piperidine-2,6-dione] is 0.1 to 1 µM; for `O=C1CCC(N2Cc3c(OCCCN4CCN(c5cccc(Cl)c5Cl)CC4)cccc3C2=O)C(=O)N1` (stereo not shown) [Example 238, 3-(4-(3-(4-(2,3-dichlorophenyl)piperazine-1-yl)propoxy)-1-oxoisoindoline-2-yl)piperidine-2,6-dione] it is 0.1 to 1 µM; for `O=C1CCC(N2Cc3c(OCCCCN4CCN(c5cccc6ccsc56)CC4)cccc3C2=O)C(=O)N1` (stereo not shown) [Example 239, 3-(4-(4-(4-(benzothiophene-7-yl)piperazine-1-yl)butoxy)-1-oxoisoindoline-2-yl)piperidine-2,6-dione] it is 1 to 20 µM.
The figure for `O=C1CCC(N2Cc3c(OCCCCN4CCN(c5cccc(Cl)c5Cl)CC4)cccc3C2=O)C(=O)N1` (stereo not shown) [Example 240, 3-(4-(4-(4-(2,3-dichlorophenyl)piperazine-1-yl)butoxy)-1-oxoisoindoline-2-yl)piperidine-2,6-dione] is 1 to 20 µM; for `O=C1CCC(N2Cc3c(OCCCCN4CCC(c5noc6cc(F)ccc56)CC4)cccc3C2=O)C(=O)N1` (stereo not shown) [Example 241, 3-(4-(4-(4-(6-fluorobenzisoxazole-3-yl)piperidin-1-yl)butoxy)-1-oxoisoindoline-2-yl) piperidine-2,6-dione] it is 1 to 20 µM; for `O=C1CCC(N2Cc3c(OCCCCN4CCN(c5noc6ccccc56)CC4)cccc3C2=O)C(=O)N1` (stereo not shown) [Example 242, 3-(4-(4-(4-(benzisoxazole-3-yl)piperazine-1-yl)butoxy)-1-oxoisoindoline-2-yl)piperidine-2,6-dione] it is 1 to 20 µM.
The figure for `O=C1CCC(N2Cc3c(OCCCCN4CCN(c5ccc(Cl)c(Cl)c5)CC4)cccc3C2=O)C(=O)N1` (stereo not shown) [Example 243, 3-(4-(4-(4-(3,4-dichlorophenyl)piperazine-1-yl)butoxy)-1-oxoisoindoline-2-yl)piperidine-2,6-dione] is 0.1 to 1 µM; for `N#CC1(c2cc(Cl)cc(Cl)c2)CCN(CCCCc2cccc3c2CN(C2CCC(=O)NC2=O)C3=O)CC1` (stereo not shown) [Example 244, 4-(3,5-dichlorophenyl)-1-(4-(2-(2,6-dioxopiperidine-3-yl)-1-oxoisoindoline-4-yl)butyl)piperidine-4-carbonitrile] it is 0.1 to 1 µM.
As to `COc1ccc(C2(C#N)CCN(CCCCc3cccc4c3CN(C3CCC(=O)NC3=O)C4=O)CC2)c(Cl)c1` (stereo not shown) [Example 245, 4-(2-chloro-4-methoxyphenyl)-1-(4-(2-(2,6-dioxopiperidine-3-yl)-1-oxoisoindoline-4-yl)butyl)piperidine-4-carbonitrile], the IC50 lay in the range of 0.1 to 1 µM.
As for `COc1ccc(OC)c(C2(C#N)CCN(CCCCc3cccc4c3CN(C3CCC(=O)NC3=O)C4=O)CC2)c1` (stereo not shown) [Example 246, 4-(2,5-dimethoxyphenyl)-1-(4-(2-(2,6-dioxopiperidine-3-yl)-1-oxoisoindoline-4-yl)butyl)piperidine-4-carbonitrile], the IC50 lay within 0.1 to 1 µM.
The figure for `COc1ccc(OC)c(C2(C#N)CCN(CCCCCc3cccc4c3CN(C3CCC(=O)NC3=O)C4=O)CC2)c1` (stereo not shown) [Example 247, 4-(2,5-dimethoxyphenyl)-1-(5-(2-(2,6-dioxopiperidine-3-yl)-1-oxoisoindoline-4-yl)pentyl)piperidine-4-carbonitrile] is 0.1 to 1 µM; for `COc1ccc(C2(C#N)CCN(CCCCCc3cccc4c3CN(C3CCC(=O)NC3=O)C4=O)CC2)cc1OC` (stereo not shown) [Example 249, 4-(3,4-dimethoxyphenyl)-1-(5-(2-(2,6-dioxopiperidine-3-yl)-1-oxoisoindoline-4-yl)pentyl)piperidine-4-carbonitrile] it is 0.1 to 1 µM.
The figure for `N#CC1(c2c(Cl)cccc2Cl)CCN(CCCCCc2cccc3c2CN(C2CCC(=O)NC2=O)C3=O)CC1` (stereo not shown) [Example 250, 4-(2,6-dichlorophenyl)-1-(5-(2-(2,6-dioxopiperidin-3-yl)-1-oxoisoindoline-4-yl)pentyl)piperidine-4-carbonitrile] is 0.1 to 1 µM; for `N#CC1(c2cc(Cl)cc(Cl)c2)CCN(CCCCCc2cccc3c2CN(C2CCC(=O)NC2=O)C3=O)CC1` (stereo not shown) [Example 251, 4-(3,5-dichlorophenyl)-1-(5-(2-(2,6-dioxopiperidin-3-yl)-1-oxoisoindoline-4-yl)pentyl)piperidine-4-carbonitrile] it is 0.1 to 1 µM.
The figure for `N#CC1(c2ccc(O[C@H]3CCOC3)cc2)CCN(CCCCCc2cccc3c2CN(C2CCC(=O)NC2=O)C3=O)CC1` (stereo partly drawn) [Example 252, 1-(5-(2-(2,6-dioxopiperidin-3-yl)-1-oxoisoindolin-4-yl)pentyl)-4-(4-(((S)-tetrahydrofuran-3-yl)oxy)phenyl)piperidine-4-carbonitrile] is 0.1 to 1 µM; for `COc1ccc(C2(C#N)CCN(CCCCc3cccc4c3CN(C3CCC(=O)NC3=O)C4=O)CC2)c(OC)c1OC` (stereo not shown) [Example 253, 1-(4-(2-(2,6-dioxopiperidin-3-yl)-1-oxoisoindolin-4-yl)butyl)-4-(2,3,4-trimethoxyphenyl)piperidine-4-carbonitrile] it is 1 to 20 µM; for `COc1ccc(C2(C#N)CCN(CCCCCc3cccc4c3CN(C3CCC(=O)NC3=O)C4=O)CC2)c(OC)c1OC` (stereo not shown) [Example 254, 1-(5-(2-(2,6-dioxopiperidin-3-yl)-1-oxoisoindolin-4-yl)pentyl)-4-(2,3,4-trimethoxyphenyl)piperidine-4-carbonitrile] it is 1 to 20 µM.
Consider `COc1ccc(C2(C#N)CCN(CCCCCc3cccc4c3CN(C3CCC(=O)NC3=O)C4=O)CC2)c(OC)c1` (stereo not shown) [Example 255, 4-(2,4-dimethoxyphenyl)-1-(5-(2-(2,6-dioxopiperidin-3-yl)-1-oxoisoindoline-4-yl)pentyl)piperidine-4-carbonitrile], for which the IC50 fell in the range of 1 to 20 µM.
The figure for `COc1ccc(C2(C#N)CCN(CCCCc3cccc4c3CN(C3CCC(=O)NC3=O)C4=O)CC2)c(OC)c1` (stereo not shown) [Example 256, 4-(2,4-dimethoxyphenyl)-1-(4-(2-(2,6-dioxopiperidin-3-yl)-1-oxoisoindoline-4-yl)butyl)piperidine-4-carbonitrile] is 1 to 20 µM; for `N#CC1(c2ccc(OC(F)(F)F)cc2Cl)CCN(CCCCc2cccc3c2CN(C2CCC(=O)NC2=O)C3=O)CC1` (stereo not shown) [Example 257, 4-(2-chloro-4-(trifluoromethoxy)phenyl)-1-(4-(2-(2,6-dioxopiperidin-3-yl)-1-oxoisoindolin-4-yl)butyl)piperidine-4-carbonitrile] it is 0.1 to 1 µM; for `N#CC1(c2ccc(OC(F)(F)F)cc2Cl)CCN(CCCCCc2cccc3c2CN(C2CCC(=O)NC2=O)C3=O)CC1` (stereo not shown) [Example 258, 4-(2-chloro-4-(trifluoromethoxy)phenyl)-1-(5-(2-(2,6-dioxopiperidin-3-yl)-1-oxoisoindolin-4-yl)pentyl)piperidine-4-carbonitrile] it is 0.1 to 1 µM.
Take `COc1cccc(C2(C#N)CCN(CCCCc3cccc4c3CN(C3CCC(=O)NC3=O)C4=O)CC2)c1OC` (stereo not shown) [Example 259, 4-(2,3-dimethoxyphenyl)-1-(4-(2-(2,6-dioxopiperidin-3-yl)-1-oxoisoindoline-4-yl)butyl)piperidine-4-carbonitrile]: the IC50 is 0.1 to 1 µM.
The figure for `COc1cccc(C2(C#N)CCN(CCCCCc3cccc4c3CN(C3CCC(=O)NC3=O)C4=O)CC2)c1OC` (stereo not shown) [Example 260, 4-(2,3-dimethoxyphenyl)-1-(5-(2-(2,6-dioxopiperidin-3-yl)-1-oxoisoindoline-4-yl)pentyl)piperidine-4-carbonitrile] is 0.1 to 1 µM.
